Assay results taken from the supplement of paper PMC10307832.

How the values were obtained:
Test in all cases: relative viability (nuclei count vs DMSO), 5 days (fraction); higher = more cells survive
[1] = compound: C1CNCCC1C2=CC(=NN2)C3=CC=NC=C3 + CS(=O)(=O)N1CCN(Cc2cc3nc(-c4cccc5[nH]ncc45)nc(N4CCOCC4)c3s2)CC1 [Pictilisib] (partner 1 µM)
Summary of the method: (§1)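 Relative viability equals treated-well nuclei counts divided by vehicle-well nuclei counts. Counts came from 4× images of lung cancer cell lines grown in 1536-well plates for 5 days after pin-tool dosing on the day after seeding. Dosing used one drug alone or a fixed anchor-drug dose plus five library-drug doses (not always all listed) in √10 steps, and values are medians of duplicate plates.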

[2] = compound: C[C@@H](N)c1ccc(C(=O)Nc2ccnc3[nH]ccc23)cc1 + CS(=O)(=O)CCNCc1ccc(-c2ccc3ncnc(Nc4ccc(OCc5cccc(F)c5)c(Cl)c4)c3c2)o1 [Lapatinib] (partner 2 µM)
Summary of the method: as §1

[3] = compound: O[C@H]1CC[C@H](Nc2ncc3nc(Nc4c(F)cc(F)cc4F)n([C@H]4CCOC4)c3n2)CC1 [Tanzisertib] + CC1(C)CCC(c2ccc(Cl)cc2)=C(CN2CCN(c3ccc(C(=O)NS(=O)(=O)c4ccc(N[C@H](CCN5CCOCC5)CSc5ccccc5)c(S(=O)(=O)C(F)(F)F)c4)cc3)CC2)C1 [Navitoclax] (partner 0.5 µM)
Summary of the method: as §1

[4] = compound: O[C@H]1CC[C@H](Nc2ncc3nc(Nc4c(F)cc(F)cc4F)n([C@H]4CCOC4)c3n2)CC1 [Tanzisertib] + C[C@]1(O)C[C@@H](c2nc(-c3ccc4ccc(-c5ccccc5)nc4c3)c3c(N)nccn32)C1 [Linsitinib] (partner 1 µM)
Summary of the method: as §1

Cell Line	relative viability ([1]; first compound 0.08 µM)	relative viability ([1]; first compound 0.8 µM)	relative viability ([1]; first compound 2.53 µM)	relative viability ([1]; first compound 8 µM)	relative viability ([2]; first compound 0.04 µM)	relative viability ([2]; first compound 0.1265 µM)	relative viability ([2]; first compound 0.4 µM)	relative viability ([2]; first compound 1.265 µM)	relative viability ([2]; first compound 4 µM)	relative viability ([3]; first compound 0.08 µM)	relative viability ([3]; first compound 0.253 µM)	relative viability ([3]; first compound 0.8 µM)	relative viability ([3]; first compound 2.53 µM)	relative viability ([3]; first compound 8 µM)	relative viability ([4]; first compound 0.08 µM)	relative viability ([4]; first compound 0.253 µM)	relative viability ([4]; first compound 0.8 µM)	relative viability ([4]; first compound 2.53 µM)	relative viability ([4]; first compound 8 µM)
RERF-LC-KJ	0.458	0.619	0.715	0.625	0.906	0.837	0.931	0.902	0.869	0.918	0.789	0.791	0.818	0.882	0.942	0.834	0.971	0.862	0.877
NCI-H727	0.373	0.407	0.505	0.575	0.863	0.957	1.02	0.513	0.989	0.377	0.354	0.481	0.477	0.502	0.358	0.32	0.322	0.38	0.249
LCLC-97TM1	0.275	0.241	0.283	0.175	1.53	1.45	1.65	0.83	1.36		0.53	0.38	0.394	0.462		0.18	0.192	0.186	0.2
BEN	0.518	0.587	0.555	0.722	0.706	0.675	0.99	0.781	0.438	0.0685	0.0675	0.0797	0.072	0.0632	0.875	0.916	1.11	0.984	0.904
NCI-H2023	0.251	0.228	0.27	0.295	0.844	0.737	1.15	0.0713	0.99	1.07	1.05	1.08	0.999	0.962	0.702	0.589	0.759	0.621	0.56
LC-2-ad	0.43	0.469	0.625	0.48	0.899	0.922	1	0.967	0.661	0.549	0.441	0.548	0.534	0.507	0.94	0.838	0.921	0.812	0.796
NCI-H647	0.388		0.427	0.381	0.961	1.07	1.16	1.06	0.901	1.11	1.18	1.22	1.3	0.943	1.17	1.29	1.12	1.24	1.3
NCI-H1755	0.423	0.412	0.419	0.372	0.874	1	1.05	0.705	0.685	1.1	1.02	0.98	0.982	0.931	0.989	0.997	0.975	0.953	0.892
EPLC-272H	0.384	0.361	0.285	0.337	1	0.914	1.1		0.668	1.33	1.14	0.971	1.17	1.04	1.46	1.18	1.19	1.12	1.08
NCI-H1437	0.443	0.485	0.45	0.528	0.842	0.782	0.825	0.772	0.737	1.14	1.1	1.08	1.13	1.08	1.14	0.981	1.11	1.13	0.971
EKVX	0.42	0.516	0.42	0.447	0.223	0.224	0.242	0.224	0.215	0.95	0.923	0.96	0.91	0.861	0.953	1.02	1.04	1.02	0.822
NCI-H1651	0.637	0.711	0.601	0.664	1.04	0.859	0.975	0.784	0.967	1.07	0.915	1.18	1.11	0.854	0.956	0.837	1.05	1.05	0.854
HCC-15	0.738	0.772	0.722	0.75	0.827	0.789	0.854		0.785	0.754	0.699	0.702	0.671	0.694	1.05	0.833	0.896	0.786	0.924
NCI-H23	0.447	0.533	0.648	0.601	0.945	1.27	1.18		0.924	0.964	0.75	0.912	0.86	0.819	0.614	0.497	0.535	0.627	0.638
NCI-H1792	0.223	0.246	0.345	0.304	0.923	0.922	0.966	0.607	0.783	0.75	0.777	0.674	0.553	0.598	0.552	0.562	0.623	0.497	0.478
NCI-H596	0.407	0.425	0.392	0.407	1.29	1.08	1.03	0.955	1.07	0.978	0.91	0.972	0.888	0.96	1.19	0.956	1.11	1.12	1.02
NCI-H460	0.423	0.289	0.436	0.385	0.974	1.1	0.984	1.12	1.03	1.32	1.21	0.986	1.2	1.24	0.982	0.706	0.738	0.783	0.525
